What all share (format): cell-based
In one assay the test system is Kyn levels in HeLa cells. Briefly: Manual Kyn assay in HeLa cells (p-DMAB detection). The following applies: IFN-γ, L-Trp, compounds 48 h, p-DMAB, mean n=3 ±SD, read-out: Kyn Assay IC50. On the procedure: Mammalian cell lines were maintained at 37°C and 5% CO2 in a humidified atmosphere and sub-cultivated twice a week. All cell lines were tested regularly for mycoplasma contamination and were always free of mycoplasma. BxPC-3 cells (DSMZ#760) were grown in RPMI-1640 medium supplemented with 10% FBS, 2 mM L-glutamine, 1 mM sodium pyruvate, 4.5 g/L glucose, 10 mM HEPES and 1.5 g/L NaHCO3. HeLa cells (DSMZ#57) were cultivated in DMEM supplemented with 10% FBS, 4.5 g/L glucose, 4 mM L-glutamine 1 mM sodium pyruvate, 1% non-essential amino acids, 3.7 g/L NaHCO3. SKOV-3 cells (ATCC#HTB-77) were maintained in modified McCoy’s 5A medium supplemented with 10% FBS, 1.5 mM L-glutamine and 2.2 g/L NaHCO3. […]
For manual testing, BxPC-3, HeLa or SKOV-3 cells (20,000 cells/well, 5,000 cells/well or 6,250 cells/well, respectively) were seeded in 96-well plates (BxPC-3 and HeLa) or 384-well plates (SKOV-3) in medium without phenol red. After 24 h, the IDO1 pathway was induced by addition of 50 ng/mL (BxPC-3 and HeLa) or 17.6 ng/mL IFN-γ (SKOV-3) and 380 µM (BxPC-3), 164.15 µM (HeLa) or 450 µM L-Trp (SKOV-3) with simultaneous treatment with the compounds at the indicated concentrations followed by incubation for 48 h. For the hemin competition assay, hemin was added together with IFN-γ, L-Trp and the compounds. Subsequently, trichloroacetic acid was added to a final concentration of 7% (v/v), the plates were incubated for 15 min at room […]
temperature and centrifuged for 10 min at 1800 x g. Afterwards, an equal volume of freshly prepared 2% (w/v) p-DMAB in glacial acetic acid (Ehrlich reagent) was added prior to measuring the absorbance at 492 nm and 650 nm on the Spark® Multimode Microplate Reader (Tecan, AT).
To determine the Kyn levels, the absorbance of the Kyn-p-DMAB adduct A492 was subtracted by the background absorbance A650 and normalized to the DMSO control. Data analysis was performed using a non-linear regression curve fit and GraphPad Prism 9.0 (GraphPad Software, Inc, US) to generate dose-response curves and obtain IC50 values. […]
Subsequently, 10 mM ascorbic acid, 10 μM methylene blue, 2 mM L-Trp and 100 μg/mL catalase were added and samples were incubated for 60 min at room temperature or 37°C. […]

Assay [1] has as its system Kyn levels in BxPC-3 cells. Briefly: Automated (high-throughput) Kyn assay in BxPC-3 cells (Kyn sensor). The following applies: Homo sapiens, BXPC-3; footnote e: value from automated Kyn Assay. On the procedure:
Mammalian cell lines were maintained at 37°C and 5% CO2 in a humidified atmosphere and sub-cultivated twice a week. All cell lines were tested regularly for mycoplasma contamination and were always free of mycoplasma. BxPC-3 cells (DSMZ#760) were grown in RPMI-1640 medium supplemented with 10% FBS, 2 mM L-glutamine, 1 mM sodium pyruvate, 4.5 g/L glucose, 10 mM […]
HEPES and 1.5 g/L NaHCO3. […]
High-throughput Kyn assay
Automated screening for modulators of Kyn levels in BxPC-3 cells was performed as published earlier.[2] Briefly, BxPC-3 cells (1,000 cells/well) were seeded in black 1536-well plates prior to incubation for 24 h and subsequent treatment with compounds, 380 µM L-Trp and 50 ng/mL IFN-γ for 48 h. Afterwards, trichloroacetic acid was added to a final concentration of 7% (v/v), the plates were incubated for 10 min at 37°C and centrifuged for 10 min at 1620 x g. Kyn was detected by addition of 17.5 µM Kyn sensor[14] in assay buffer (excitation: 535 nm, emission: […]

In assay [2] the test system is L-Trp uptake in BxPC-3 cells. Briefly: Trp uptake assay in BxPC-3 cells (HPLC-MS/MS). The settings on record: BxPC-3 starved for L-Trp 72 h, ±IFN-γ; 5 mM L-Leu, 1 mM 1-MT, 5 µM compound. On the procedure: GraphPad Prism 9.0 (GraphPad Software, Inc, US) to generate dose-response curves and obtain […]
IDO1 promoter reporter gene assay
HEK293T cells (25,000 cells/well) were reverse-transfected with pXPG-IDO1[16] (4 µg/96-well plate, kindly provided by Gina M. Doody, Leeds, UK) and pRL-TK (300 ng/96-well plate, Promega, US) using Lipofectamine™ 2000 (Invitrogen, USA) pri or to incubation for 24 h. Afterwards, cells were treated with 50 ng/mL IFN-γ and the compounds for 48 h. Luminescence generated by the Fluc reporter and the control reporter Rluc was measured using the Dual-Glo ® Luciferase Assay System (Promega, US) on the Spark® Multimode Microplate Reader (Tecan, AT). To determine the IDO1 promoter activity, Fluc signals were divided by Rluc signals and normalized to the values of the DMSO control. Data analysis was performed using a non-linear regression curve fit and […]
BxPC-3 cells (30,000 cells/well) were seeded in 96-well plates in Trp-free RPMI 1640 medium and incubated for 48 h prior addition of 50 ng/mL IFN-γ. Trp starvation was continued for another 24 h. Afterwards, medium was exchanged for Trp-free medium containing the control inhibitors 5 mM L-Leu (inhibitor of system-L amino acid transporters (LAT)), 1 mM 1-methyl-L-tryptophan (inhibitor of tryptophanyl-tRNA synthetase (TrpRS)) and compounds and cells were incubated for 30 min. Subsequently, 50 µM L-Trp was added and samples were incubated for another 30 min.
The supernatant was transferred to a new plate, trichloroacetic acid was added to a final concentration of 7% (v/v) and plates were incubated for 15 min at room temperature. Samples were centrifuged for 10 min at 1800 x g and L-Trp was quantified by HPLC-MS/MS using the LTQ Velos Pro and Dionex HPLC (Thermo Fisher Scientific, US). Data analysis was performed with Xcalibur™ (Thermo Fisher Scientific, US) and repres ented using GraphPad Prism 9.0 (GraphPad […]
RNA purification and RT-qPCR
HeLa cells (250,000 cells/well) were seeded in 6-well plates and incubated for 24 h prior addition of 50 ng/mL IFN-γ and compounds. […]

Like-named read-outs stand apart in the source and are kept apart here.

By IC50 is commonly meant the concentration that inhibits the measured activity by half.

As to `CCOC(=O)C1=CC[C@@](C(=O)OC)(c2cc3ccccc3n2C)N(S(=O)(=O)c2ccccc2[N+](=O)[O-])[C@H]1C(=O)OCC` [3a^a], the IC50 in the assay with Kyn levels in HeLa cells (Homo sapiens, HeLa, 48 h) was over 10000 nM.
In assay [1], `CCOC(=O)C1=CC[C@H](c2cc3ccccc3n2C)N(S(=O)(=O)c2ccc(C)cc2)[C@@H]1C(=O)OC(C)(C)C` [3e^e] had an IC50 of 260 ± 50 nM.
With `Cn1cc(C[C@H](N)C(=O)O)c2ccccc21` [Compound 1-MT, 1-methyl-L-tryptophan], the “uptake (import) of L-Trp” value in assay [2] is “inhibit the uptake”.
In the case of `CCOC(=O)C1=CC[C@H](c2cc3ccccc3n2C)N(S(=O)(=O)c2ccccc2[N+](=O)[O-])[C@@H]1C(=O)OC(C)(C)C` [Compound 3c], the IC50 was found to be 480 ± 60 nM in the assay with Kyn levels in HeLa cells (listed as 3c^b) and 1040 ± 80 nM in the assay with Kyn levels in HeLa cells.
As to `CCOC(=O)C1=CC[C@](C(=O)OC)(c2cc3ccccc3n2C)N(S(C)(=O)=O)[C@@H]1C(=O)OC(C)(C)C` [Compound 3f], the IC50 in the assay with Kyn levels in HeLa cells (Homo sapiens, HeLa, 48 h) was determined as 80 ± 10 nM; with Kyn levels in HeLa cells (listed as 3f^bc), 90 ± 10 nM.
Regarding `CCOC(=O)C1=CC[C@](C(=O)OC)(c2cc3ccccc3n2C)N(S(=O)(=O)c2ccccc2)[C@@H]1C(=O)OC(C)(C)C` [Compound 3g], the concentration for half-maximal inhibition (IC50) in the assay on Kyn levels in HeLa cells (Homo sapiens, HeLa, 48 h) is 80 ± 10 nM.
Same read-out and setting: under `CCOC(=O)C1=CC[C@](C(=O)OC)(c2cc3ccccc3n2C)N(S(=O)(=O)c2ccc(Br)cc2)[C@@H]1C(=O)OC(C)(C)C` [Compound 3h] stands 430 ± 150 nM; under `CCOC(=O)C1=CC[C@](C(=O)OC)(c2cc3ccccc3n2C)N(S(=O)(=O)c2cccc(C(F)(F)F)c2)[C@@H]1C(=O)OC(C)(C)C` [Compound 3i], 1540 ± 410 nM; under `CCOC(=O)[C@@H]1C(C(=O)OC(C)(C)C)=CC[C@](C(=O)OC)(c2cc3ccccc3n2C)N1S(=O)(=O)c1ccc(C)cc1` [Compound 3j], 760 ± 40 nM.
On the same count and under the same terms, under `CCOC(=O)[C@@H]1C(C(=O)OC(C)(C)C)=CC[C@H](c2cc3ccccc3n2C)N1S(=O)(=O)c1ccc(C)cc1` [Compound 3k] stands 1630 ± 160 nM.
Consider `COC(=O)[C@]1(c2cc3ccccc3n2C)CC=C(C(=O)OCc2ccccc2)[C@@H](C(=O)OC(C)(C)C)N1S(=O)(=O)c1ccccc1[N+](=O)[O-]` [Compound 3l], for which the concentration for half-maximal inhibition (IC50) turned out to be 2880 ± 130 nM in the assay on Kyn levels in HeLa cells (listed as 3l^a) and 1390 ± 90 nM in the assay on Kyn levels in HeLa cells.
With `CCOC(=O)[C@@H]1C(C(=O)OC(C)(C)C)=CC[C@](C(=O)OC)(c2cc3ccccc3n2C)N1S(=O)(=O)c1ccccc1[N+](=O)[O-]` [Compound 3m], the half-inhibitory concentration (IC50) in the assay with Kyn levels in HeLa cells (Homo sapiens, HeLa, 48 h) turned out to be 2460 ± 290 nM.
The same measure, in the same setting: under `CCOC(=O)C1=CC[C@](C(=O)OC)(c2cc3ccccc3n2C)N(S(=O)(=O)c2ccccc2[N+](=O)[O-])[C@@H]1C(=O)OCc1ccccc1` [Compound 3n] stands 7520 ± 800 nM.
As for `COC(=O)[C@]1(c2cc3ccccc3n2C)CC=C(C(=O)OC(C)(C)C)[C@@H](C(=O)OC(C)(C)C)N1S(=O)(=O)c1ccccc1[N+](=O)[O-]` [Compound 3o], the figures for the IC50 with Kyn levels in HeLa cells (listed as 3o^a), in the assay with Kyn levels in HeLa cells (listed as 3o^b) and with Kyn levels in HeLa cells were 820 ± 700 nM, 160 ± 50 nM and 650 ± 80 nM, respectively.
On to `COC(=O)[C@]1(c2cc3ccccc3n2C)CC=C(C(=O)OCc2ccccc2)[C@@H](C(=O)OC(C)(C)C)N1S(=O)(=O)c1ccc(C)cc1` [Compound 3p], for which the concentration for half-maximal inhibition (IC50) with Kyn levels in HeLa cells (Homo sapiens, HeLa, 48 h) stood at 1650 ± 230 nM.
Same read-out and setting: under `CCOC(=O)C1=CC[C@](C(=O)OC)(c2cc3ccccc3n2C)N(S(=O)(=O)c2ccc(F)cc2)[C@@H]1C(=O)OC(C)(C)C` [Compound 3q] stands 110 ± 20 nM.
In the case of `Cn1c([C@H]2CC=C(C(=O)OCc3ccccc3)[C@@H](C(=O)OC(C)(C)C)N2S(=O)(=O)c2ccccc2[N+](=O)[O-])cc2ccccc21` [Compound 3r], the IC50 in the assay on Kyn levels in HeLa cells (Homo sapiens, HeLa, 48 h) was 890 ± 190 nM.
As for `CC(C)C[C@H](N)C(=O)O` [L-Leu, L-leucine], the “uptake (import) of L-Trp” value in assay [2] is “inhibit the uptake”.

(Values after article PMC9804781, “Identification of a Novel Pseudo‐Natural Product Type IV IDO1 Inhibitor Chemotype” (Angewandte Chemie (International Ed. in English), 2022).)
